According to ChEMBL document CHEMBL3745672, “Novel compounds reducing IRS-1 serine phosphorylation for treatment of diabetes” (Bioorg Med Chem Lett, 2016):
Calls of active or inactive are those of the source. No cut-off for these calls is given here.

What was measured:
HEK293 = assay: Cytotoxicity against HEK293 after 24 hrs by CellTiter-Glo luminescent cell viability assay; assay type: cell-based; conditions: Homo sapiens, HEK293, 24 h
[1] = target: T1, Mitogen-activated protein kinase 8 (Homo sapiens, UniProt P45983); assay: Inhibition of JNK1 (unknown origin)
T1 sequence (P45983 whole entry): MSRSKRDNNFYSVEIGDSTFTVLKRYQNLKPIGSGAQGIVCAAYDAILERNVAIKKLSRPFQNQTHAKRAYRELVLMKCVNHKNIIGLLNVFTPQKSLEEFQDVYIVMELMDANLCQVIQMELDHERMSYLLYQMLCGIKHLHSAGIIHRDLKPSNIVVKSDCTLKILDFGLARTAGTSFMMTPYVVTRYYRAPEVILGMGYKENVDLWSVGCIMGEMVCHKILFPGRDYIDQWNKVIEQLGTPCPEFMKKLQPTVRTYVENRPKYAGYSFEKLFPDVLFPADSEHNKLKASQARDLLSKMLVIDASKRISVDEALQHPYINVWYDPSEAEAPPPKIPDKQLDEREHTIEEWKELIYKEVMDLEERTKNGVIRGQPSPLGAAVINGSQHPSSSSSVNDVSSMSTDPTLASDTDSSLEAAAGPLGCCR

[2] = target: T1, Mitogen-activated protein kinase 8; assay: Inhibition of JNK1 (unknown origin) expressed in HEK293 cells assessed as anisomycin-induced IRS-1(Ser307) phosphorylation at 10 uM incubated for 30 mins by Western blot analysis relative to anisomycin; assay type: cell-based; parameters: scale not given: the % may be the effect or the level left
[3] = target: T1, Mitogen-activated protein kinase 8; assay: Inhibition of JNK1 (unknown origin) expressed in HEK293 cells assessed as anisomycin-induced c-Jun phosphorylation at 10 uM incubated for 30 mins by Western blot analysis relative to anisomycin; assay type: cell-based; parameters: scale not given: the % may be the effect or the level left
[4] = target: T1, Mitogen-activated protein kinase 8; assay: Inhibition of JNK1 (unknown origin) expressed in HEK293 cells assessed as anisomycin-induced JNK phosphorylation at 10 uM incubated for 30 mins by Western blot analysis relative to anisomycin; assay type: cell-based; parameters: scale not given: the % may be the effect or the level left
[5] = target: Mitogen-activated protein kinase 8 (Rattus norvegicus) (UniProt P49185); assay: Inhibition of albumin-conjugated palmitate-induced JNK1/2 phosphorylation assessed as JNK phosphorylation level in rat RINm5F cells incubated for 8 hrs; assay type: cell-based
Sequence of Mitogen-activated protein kinase 8 (Rattus norvegicus) (P49185 whole entry): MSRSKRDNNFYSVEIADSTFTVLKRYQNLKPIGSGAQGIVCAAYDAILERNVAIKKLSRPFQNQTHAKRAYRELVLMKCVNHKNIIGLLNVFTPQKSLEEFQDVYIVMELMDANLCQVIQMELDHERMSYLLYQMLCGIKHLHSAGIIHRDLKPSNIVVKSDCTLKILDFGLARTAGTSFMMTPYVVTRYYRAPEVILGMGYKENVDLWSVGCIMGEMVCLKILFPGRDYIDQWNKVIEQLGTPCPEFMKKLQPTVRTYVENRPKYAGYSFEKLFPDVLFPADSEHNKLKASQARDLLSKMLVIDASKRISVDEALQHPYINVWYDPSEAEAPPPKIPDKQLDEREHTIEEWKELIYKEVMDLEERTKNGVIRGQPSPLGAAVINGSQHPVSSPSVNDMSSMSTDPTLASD

[6] = target: Mitogen-activated protein kinase 8 (Rattus norvegicus) (UniProt P49185); assay: Inhibition of JNK1 phosphorylation in rat RINm5F cells assessed as suppression of albumin-conjugated palmitate-induced IRS-1 Ser307 phosphorylation incubated for 8 hrs; assay type: cell-based; parameters: concentration or dose not given beside the values; conditions: concentration not given here

Row | SMILES | IC50 [1] [µM] | Activity [2] [%] | Activity [3] [%] | Activity [4] [%] | inhibition ([5]; concentration not given here) [%] | inhibition [6] [%] | inhibition [5] | IC50 (HEK293) [µM]
1 | Cn1c(=O)c(Oc2ccc(F)cc2F)cc2cnc(NCc3cccc(C(F)(F)F)c3)nc21 | > 23 | 0 | 101 | 94.1 |  |  |  | > 30
2 | Cn1c(=O)c(Oc2ccc(F)cc2F)cc2cnc(NCc3ccccn3)nc21 | > 23 | 68.2 | 86.2 | 68.2 |  |  |  | > 30
3 | Cn1c(=O)c(Oc2ccc(F)cc2F)cc2cnc(NCCNS(C)(=O)=O)nc21 | 18.9 | 12.2 | 67.5 | 75.8 |  |  |  | > 30
4 | Cn1c(=O)c(Oc2ccc(F)cc2F)cc2cnc(NC3CCCCCC3)nc21 | 6.73 | 0 | 119 | 84 |  |  |  | > 26.7
5 | O=C(O)c1ccccc1Nc1ccnc(Nc2cccc(O)c2)n1 |  | 161 | 88 |  |  |  |  | > 30
6 | Cn1c(=O)c(Oc2ccc(F)cc2F)cc2cnc(N3CCC(O)CC3)nc21 | > 23 | 124 | 131 | 122 |  |  |  | > 30
7 | Cn1c(=O)c(Oc2ccc(F)cc2F)cc2cnc(NC3CCCCC3)nc21 | 16.1 | 0 | 32.4 | 37.6 | 59 | 93 |  | 14
8 | Cn1c(=O)c(Oc2ccc(F)cc2F)cc2cnc(NC(CCO)CCO)nc21 [PAMAPIMOD] |  | 14 | 94 |  |  |  |  | > 30
9 | Cn1c(=O)c(Oc2ccc(F)cc2F)cc2cnc(NC3CCNCC3)nc21 | 10.9 | 0 | 119 | 81 |  |  |  | > 30
10 | Cn1c(=O)c(Oc2ccc(F)cc2F)cc2cnc(N3CCCC(O)C3)nc21 (stereo not given) | > 23 | 88.7 | 104 | 38.1 |  |  |  | > 30
11 | NC(=O)c1ccccc1Nc1ccnc(Nc2cccc(O)c2)n1 | 0.17 | 97 | 104 |  |  |  |  | > 30
12 | Cn1c(=O)c(Oc2ccc(F)cc2F)cc2cnc(N3CCCC(CO)C3)nc21 (stereo not given) | > 23 | 79.4 | 103 | 21.1 |  |  |  | > 30
13 | Cn1c(=O)c(Oc2ccc(F)cc2F)cc2cnc(N3CCC(O)C3)nc21 (stereo not given) | > 23 | 51.1 | 111 | 131 |  |  |  | > 30
14 | CC(C)Nc1ncc2cc(Oc3ccc(F)cc3F)c(=O)n(C)c2n1 | 4.22 | 15 | 81 |  |  |  |  | > 30
15 | Cn1c(=O)c(Oc2ccc(F)cc2F)cc2cnc(NCCCNS(C)(=O)=O)nc21 | 2.77 | 0 | 73.5 | 52.9 |  | 87 | inactive | > 30
16 | Cn1c(=O)c(Oc2ccc(F)cc2F)cc2cnc(NC3CC3)nc21 | 7.17 | 2.61 | 142 | 174 |  |  |  | > 30
17 | Cn1c(=O)c(Oc2ccc(F)cc2F)cc2cnc(NC3CCCC3)nc21 | 5.93 | 0 | 66.5 | 40 |  | 61 | inactive | > 30
18 | Cn1c(=O)c(Oc2c(Cl)cccc2Cl)cc2cnc(N3CCC(CO)CC3)nc21 | > 23 | 127 | 149 | 119 |  |  |  | > 30
19 | Cn1c(=O)c(Oc2ccc(F)cc2F)cc2cnc(N3CCC(CO)CC3)nc21 | > 23 | 102 | 121 | 91.6 |  |  |  | > 30
20 | O=C(O)c1ccccc1Nc1ccnc(Nc2cccc(F)c2)n1 | 0.05 | 69 | 46 |  |  |  |  | > 30
21 | Cn1c(=O)c(Oc2ccc(F)cc2F)cc2cnc(NCCN3CCOCC3)nc21 | > 23 | 26.7 | 102 | 96.1 |  |  |  | > 30
22 | CCOC(=O)N1CCC(Nc2ncc3cc(Oc4ccc(F)cc4F)c(=O)n(C)c3n2)CC1 | 2.75 | 0 | 42 |  |  |  |  | > 30

More lines, main results first:

Row | IC50 [1] [µM] | Activity [2] [%] | Activity [3] [%] | Activity [4] [%] | inhibition ([5]; concentration not given here) [%] | inhibition [6] [%] | inhibition [5] | SMILES | IC50 (HEK293) [µM]
23 | 14.9 | 14.7 | 128 | 96.1 |  |  |  | Cn1c(=O)c(Oc2c(Cl)cccc2Cl)cc2cnc(NC3CC3)nc21 | > 30
24 | > 23 | 46.3 | 108 | 129 |  |  |  | Cn1c(=O)c(Oc2c(Cl)cccc2Cl)cc2cnc(Nc3ccc(N4CCCCC4)cc3)nc21 | > 30
25 | > 23 | 40.5 | 99.1 | 96.3 |  |  |  | Cn1c(=O)c(Oc2c(Cl)cccc2Cl)cc2cnc(N3CCC(O)CC3)nc21 | > 30
26 | > 23 | 9.09 | 74 | 58.9 | 54 | 58 |  | Cn1c(=O)c(Oc2c(Cl)cccc2Cl)cc2cnc(Nc3ccc(N4CCC(O)CC4)cc3)nc21 | > 30
27 | > 23 | 14.3 | 116 | 81.6 |  |  |  | Cn1c(=O)c(Oc2c(Cl)cccc2Cl)cc2cnc(NCCc3ccccn3)nc21 | > 30
28 | 27.1 | 71.3 | 114 | 139 |  |  |  | Cn1c(=O)c(Oc2c(Cl)cccc2Cl)cc2cnc(NCCN3CCOCC3)nc21 | > 30
29 | > 23 | 99.3 | 103 | 99.3 |  |  |  | Cn1c(=O)c(Oc2c(Cl)cccc2Cl)cc2cnc(N3CCCC(CO)C3)nc21 (stereo not given) | > 30
30 | > 23 | 165 | 104 | 136 |  |  |  | Cn1c(=O)c(Oc2c(Cl)cccc2Cl)cc2cnc(Nc3ccc(N4CCCC4)cc3)nc21 | > 30
31 | > 23 | 93.6 | 133 | 36.2 |  |  |  | Cn1c(=O)c(Oc2c(Cl)cccc2Cl)cc2cnc(N3CCCC(O)C3)nc21 (stereo not given) | > 30
32 | > 23 | 2.15 | 115 | 35.3 |  |  |  | Cn1c(=O)c(Oc2c(Cl)cccc2Cl)cc2cnc(NCc3ccccn3)nc21 | > 30
33 | > 23 | 74.5 | 82.5 | 74.5 |  |  |  | Cn1c(=O)c(Oc2c(Cl)cccc2Cl)cc2cnc(N3CCC(O)C3)nc21 (stereo not given) | > 30
34 | 19.3 | 8.18 | 115 | 108 |  |  |  | Cn1c(=O)c(Oc2c(Cl)cccc2Cl)cc2cnc(NC3CCCC3)nc21 | > 30
35 | > 23 | 110 | 118 | 110 |  |  |  | Cn1c(=O)c(Oc2c(Cl)cccc2Cl)cc2cnc(N3CCCCC3CO)nc21 (stereo not given) | > 30
36 | > 23 | 98.9 | 108 | 98.9 |  |  |  | Cn1c(=O)c(Oc2ccc(F)cc2F)cc2cnc(Nc3ccc(N4CCCC4)cc3)nc21 | > 30
